From the NIST ThermoML archive (doi:10.1021/je400252p)

Legend:
[1] = Molar enthalpy of transition or fusion; conditions: Crystal; DSC
[2] = refractive index (Na D-line) (dimensionless); conditions: 313 K; 101.33 kPa; Liquid; Standard Abbe refractometry
[3] = for mass density / viscosity: 101.33 kPa; for mass density / surface tension liquid-gas / viscosity: Liquid; for mass density: Vibrating tube method; for surface tension liquid-gas: Ring tensiometer

CCCCCC[N+]12CCN(CC1)CC2.O=S(=O)([N-]S(=O)(=O)C(F)(F)F)C(F)(F)F
Conditions	Molar enthalpy of transition or fusion [kcal/mol]	refractive index
[1]	2.63	–
[2]	–	1.4379

[3]
Conditions	mass density [kg/m3]	surface tension liquid-gas [mN/m]	viscosity [mPa·s]
313.15 K	1355.15	35.62	–
318.15 K	1350.93	35.33	190.8
323.15 K	1346.72	35.05	138.1
328.15 K	1342.51	34.83	107
333.15 K	1338.29	34.51	87.6

[3], DTA
Conditions	Glass transition temperature [°C]	Normal melting temperature [°C]
Crystal	–	36
Glass	-51	–
